The test system of this test is type III protein secretion system of P. aeruginosa PA103 (ExoU secretion). Kind of test: Tertiary assay: Type III-dependent secretion of ExoU by P. aeruginosa PA103. The class given is cell-based. The conditions noted are these: Pseudomonas aeruginosa, ExoU secreted into extracellular medium. From the text:
Tertiary assay: inhibition of Type III protein secretion of effectors from a Pseudomonas aeruginosa system. Type III protein secretion is used by P. aeruginosa to secrete several essential virulence determinants. One effector of the type III protein secretion system of P. aeruginosa PA103 is the virulence determinants ExoU.
The amount of Type III-dependent secretion of ExoU by P. aeruginosa PA103 can be determined in a cell-based assay by quantification of the 73.9 kDa ExoU protein scereted into the extracellular medium. Such quantitation can be achieved by growing strain PA103 in a deferrated medium in the presence of nitrilotriacetic acid (an inducer of Type III protein secretion in P. aeruginosa) and either in the presence or absence of putative inhibitors. After a prolonged growth period, the cells are sedimented and the supernatants concentrated by ammonium sulfate precipitation. The proteins in the resuspended pellets are separated by electrophoresis on SDS-polyacrylamide gels. After staining gels with Colloidal Blue™, the 73.9 kDa ExoU band is quantitated by scanning through an imager. The effects of inhibitors on the intensity of the ExoU band may be measured relative to that of untreated controls.

22 compounds from patent US20050272784A1 (priority 2004, published 2005) can be followed below.

Turning to `N#Cc1ccc(-c2oc(-c3ccc(C(F)(F)F)cc3)nc2C(=O)NC(CSCc2ccccc2)C(=O)O)cc1` (stereo in doubt) [Compound 1, (R)-3-Benzylsulfanyl-2-{[5-(4-cyanophenyl)-2-(4-trifluoromethylphenyl)oxazole-4-carbonyl]amino}propionic acid], the IC50 worked out at 70.7 µM.
Then `O=C(NC(Cc1ccc(Cl)cc1)C(=O)O)c1[nH]c(-c2ccc(-c3ccccc3)cc2)nc1-c1cccc(C(F)(F)F)c1` (stereo not shown) [Compound 3, 2-{[2-Biphenyl-4-yl-5-(3-trifluoromethylphenyl)-3H-imidazole-4-carbonyl]amino}-3-(4-chlorophenyl)propionic acid], with 20.6 µM; and `O=C(N[C@H](Cc1ccc(Cl)cc1)C(=O)O)c1nc(-c2ccc(-c3ccccc3)cc2)nn1-c1cccc(C(F)(F)F)c1` [Compound 4, (R)-2-{[5-Biphenyl-4-yl-2-(3-trifluoromethylphenyl)-2H-[1,2,4]triazole-3-carbonyl]amino}-3-(4-chlorophenyl)propionic acid], with 56.6 µM.
Then `O=C(N[C@@H](CSCc1ccccc1)C(=O)O)c1nc(-c2ccc(C(F)(F)F)cc2)oc1-c1ccc(-c2ccccc2)cc1` [Compound 5, (R)-3-Benzylsulfanyl-2-{[5-biphenyl-4-yl-2-(4-trifluoromethylphenyl)oxazole-4-carbonyl]amino}propionic acid], with 12.5 µM; and `O=C(N[C@@H](CSCc1ccccc1)C(=O)O)c1nc(-c2ccc(C(F)(F)F)cc2)sc1-c1ccc(OCc2ccccc2)cc1` [Compound 7, (R)-2-{[5-(4-Benzyloxyphenyl)-2-(4-trifluoromethylphenyl)thiazole-4-carbonyl]amino}-3-benzylsulfanylpropionic acid], with 54.4 µM; and `O=C(N[C@@H](CSCc1ccccc1)C(=O)O)c1nc(-c2ccc(Oc3ccccc3)cc2)oc1-c1ccc(Cl)c(Cl)c1` [Compound 8, (R)-3-Benzylsulfanyl-2-{[5-(3,4-dichlorophenyl)-2-(4-phenoxyphenyl)oxazole-4-carbonyl]amino}propionic acid], with 45.4 µM.
Then `O=C(N[C@@H](CSCc1ccccc1)C(=O)O)c1nc(-c2ccc(C(F)(F)F)cc2)oc1C#Cc1ccccc1` [Compound 9, (R)-3-Benzylsulfanyl-2-{[5-phenylethynyl-2-(4-trifluoromethylphenyl)oxazole-4-carbonyl]amino}propionic acid], with 26.7 µM; and `O=C(N[C@@H](COCc1ccccc1)C(=O)O)c1nc(-c2ccc(C(F)(F)F)cc2)oc1C#Cc1ccccc1` [Compound 10, (S)-3-Benzyloxy-2-{[5-phenylethynyl-2-(4-trifluoromethylphenyl)oxazole-4-carbonyl]amino}propionic acid], with 42.4 µM; and `O=C(N[C@@H](COCc1ccccc1)C(=O)O)c1nc(-c2ccc(Oc3ccccc3)cc2)oc1-c1ccc(Cl)c(Cl)c1` [Compound 13, (S)-3-Benzyloxy-2-{[5-(3,4-dichlorophenyl)-2-(4-phenoxyphenyl)-oxazole-4-carbonyl]amino}propionic acid], with 19.3 µM.
`O=C(N[C@@H](CSCc1ccccc1)C(=O)O)c1nc(-c2ccc(C(F)(F)F)cc2)oc1-c1ccc(N2CCCCC2)nc1` [Compound 14, (R)-3-Benzylsulfanyl-2-{[5-(3,4,5,6-tetrahydro-2H-[1,2′]bipyridin-5′-yl)-2-(4-trifluoromethylphenyl)oxazole-4-carbonyl]amino}propionic acid] had an IC50 of 62.8 µM.
The value for `O=C(NC(Cc1ccc(Cl)cc1)C(=O)O)c1nc(-c2ccc(-c3ccccc3)cc2)oc1-c1cccc(C(F)(F)F)c1` (stereo not shown) [Compound 15, 2-{[2-Biphenyl-4-yl-5-(3-trifluoromethylphenyl)oxazole-4-carbonyl]amino}-3-(4-chlorophenyl)propionic acid] was 79.9 µM.
Then `CN(C(=O)c1nc(-c2ccc(C(F)(F)F)cc2)oc1-c1ccc(-c2ccccc2)cc1)[C@@H](CSCc1ccccc1)C(=O)O` [Compound 16], with 80.9 µM.
Compound `O=C(N[C@@H](CSCc1ccccc1)C(=O)O)c1nc(-c2ccc(C(F)(F)F)cc2)oc1-c1ccc(OCc2ccccc2)cc1` [Compound 17, (R)-2-{[5-(4-Benzyloxyphenyl)-2-(4-trifluoromethylphenyl)oxazole-4-carbony]amino}-3-benzylsulfanylpropionic acid] yielded an IC50 of 34.3 µM.
Compound `O=C(N[C@@H](CSCc1ccccc1)C(=O)O)c1nc(-c2ccc(C(F)(F)F)cc2)oc1-c1ccc(-c2cccnc2)cc1` [Compound 18, (R)-3-Benzylsulfanyl-2-{[5-(4-pyridin-3-yl-phenyl)-2-(4-trifluoromethylphenyl)-oxazole-4-carbonyl]amino}propionic acid] displayed an IC50 of 89.1 µM.
Then `O=C(N[C@@H](CSCc1ccccc1)C(=O)O)c1nc(-c2ccc(C(F)(F)F)cc2)oc1-c1ccc(-c2ccncc2)cc1` [Compound 19, (R)-3-Benzylsulfanyl-2-{[5-(4-pyridin-4-yl-phenyl)-2-(4-trifluoromethylphenyl)oxazole-4-carbonyl]amino}propionic acid], with 78.2 µM; and `O=C(N[C@@H](COCc1ccccc1)C(=O)O)c1nc(-c2ccc(C(F)(F)F)cc2)oc1-c1cc2ccccc2s1` [Compound 22, (S)-2-{[5-Benzo[b]thien-2-yl-2-(4-trifluoromethylphenyl)oxazole-4-carbonyl]amino}-3-benzyloxypropionic acid], with 82.4 µM.
`O=C(N[C@@H](CSCc1ccccc1)C(=O)O)c1nc(-c2ccc(C(F)(F)F)cc2)oc1-c1cc2ccccc2s1` [Compound 23, (R)-2-{[5-Benzo[b]thien-2-yl-2-(4-trifluoromethylphenyl)oxazole-4-carbonyl]amino}-3-benzylsulfanylpropionic acid] came in with an IC50 of 40.7 µM.
Then `O=C(N[C@@H](COCc1ccccc1)C(=O)O)c1nc(-c2ccc(C(F)(F)F)cc2)oc1-c1ccc2ccccc2n1` [Compound 27, (S)-3-Benzyloxy-2-{[5-quinolin-2-yl-2-(4-trifluoromethylphenyl)oxazole-4-carbonyl]amino}propionic acid], with 93.1 µM.
In turn, `O=C(N[C@@H](COCc1ccccc1)C(=O)O)c1nc(-c2ccc(C(F)(F)F)cc2)oc1-c1ccc(Cl)nc1` [Compound 29, (S)-3-Benzyloxy-2-{[5-(6-chloropyridin-3-yl)-2-(4-trifluoromethylphenyl)oxazole-4-carbonyl]amino}propionic acid] showed an IC50 of 73.4 µM.
Turning to `O=C(N[C@@H](CSCc1ccccc1)C(=O)O)c1nc(-c2ccc(C(F)(F)F)cc2)oc1-c1ccc(-c2ccccc2)nc1` [Compound 33, (R)-3-Benzylsulfanyl-2-{[5-(6-phenylpyridin-3-yl)-2-(4-trifluoromethylphenyl)oxazole-4-carbonyl]amino}propionic acid], half-maximal inhibition (IC50) was put at 48.9 µM.
The value for `O=C(N[C@@H](CSCc1ccccc1)C(=O)O)c1nc(-c2ccc(C(F)(F)F)cc2)oc1-c1ccc(-c2ccc(F)cc2)nc1` [Compound 34, (R)-3-Benzylsulfanyl-2-{[5-[6-(4-fluorophenyl)pyridin-3-yl]-2-(4-trifluoromethylphenyl)oxazole-4-carbonyl]amino}propionic acid] was 47.4 µM.
The value for `O=C(N[C@@H](COCc1ccccc1)C(=O)O)c1nc(-c2ccc(C(F)(F)F)cc2)oc1-c1cc2ccccc2o1` [Compound 35, (S)-2-{[5-Benzofuran-2-yl-2-(4-trifluoromethylphenyl)oxazole-4-carbonyl]amino}-3-benzyloxypropionic acid] was 79.8 µM.
